Results published in ChEMBL document CHEMBL1201862, “PubChem BioAssay data set” (2004).
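Values below derive from 48-hour exposures of cells grown in 96-well plates, with endpoints linearly interpolated between the two concentrations bracketing the appropriate inhibition level. GI50: concentration for 50% inhibition of growth.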 Active and inactive are the calls of the source. Rule as the data show it: active = GI50 up to about 1.1 µM and inactive = higher.

Legend:
Assay in all cases: NCI anticancer screen, dose series, 48 h
UACC-62 = tested on: UACC-62
SF-539 = tested on: SF-539
MOLT-4 = tested on: MOLT-4
SNB-19 = tested on: SNB-19
CAKI-1 = tested on: CAKI-1
SR = tested on: SR
LOX IMVI = tested on: LOX IMVI
K562 = tested on: K562
SK-OV-3 = tested on: SK-OV-3
OVCAR-3 = tested on: OVCAR-3
NCI-H522 = tested on: NCI-H522
786-0 = tested on: 786-0
A498 = tested on: A498
HOP-92 = tested on: HOP-92
RXF 393 = tested on: RXF 393
PC-3 = tested on: PC-3
TK-10 = tested on: TK-10
COLO 205 = tested on: COLO 205
HCT-15 = tested on: HCT-15
DU-145 = tested on: DU-145

| SMILES | GI50 (UACC-62) | GI50 (SF-539) | GI50 (MOLT-4) | GI50 (SNB-19) | GI50 (CAKI-1) | GI50 (SR) | GI50 (LOX IMVI) | GI50 (K562) | GI50 (SK-OV-3) | GI50 (OVCAR-3) | GI50 (NCI-H522) | GI50 (786-0) | GI50 (A498) | GI50 (HOP-92) | GI50 (RXF 393) | GI50 (PC-3) | GI50 (TK-10) | GI50 (COLO 205) | GI50 (HCT-15) | GI50 (DU-145) |
| --- | --- | --- | --- | --- | --- | --- | --- | --- | --- | --- | --- | --- | --- | --- | --- | --- | --- | --- | --- | --- |
| CS(=O)(=O)Nc1ccc(Nc2c3ccccc3nc3ccccc23)cc1 | 1.34 µM (inactive) | 3.4 µM (inactive) | 0.0873 µM (active) | 2.03 µM (inactive) | 0.491 µM (active) | 0.0789 µM (active) | 1.26 µM (inactive) | 2.23 µM (inactive) | 1.89 µM (inactive) | 4.93 µM (inactive) | 2.06 µM (inactive) | 3.1 µM (inactive) | 3.21 µM (inactive) | 4.78 µM (inactive) | 5.73 µM (inactive) | 2.62 µM (inactive) | 2.57 µM (inactive) | 1.69 µM (inactive) | 2.31 µM | 0.355 µM (active) |
| C[C@]12CC[C@H]3[C@@H](CC=C4C[C@@H](N5CCCC5)CC[C@@]43C)[C@@H]1C[C@H](N1CCCCC1)[C@@H]2O | > 100 µM (inactive) | 39.7 µM (inactive) | > 100 µM (inactive) | > 100 µM (inactive) | > 100 µM (inactive) | 11.4 µM (inactive) | 33.3 µM (inactive) | 16.9 µM (inactive) | > 100 µM (inactive) | > 100 µM (inactive) | > 100 µM (inactive) | 91.8 µM (inactive) | > 100 µM (inactive) | 83.8 µM (inactive) | > 100 µM (inactive) | > 100 µM (inactive) | > 100 µM (inactive) | 93.3 µM (inactive) | 33.8 µM | > 100 µM (inactive) |
| CCN(CC)c1ccc(NC(=S)NN(C)C)cc1 | > 10 µM (inactive) | > 10 µM (inactive) | > 10 µM (inactive) | > 10 µM (inactive) | > 10 µM (inactive) | > 10 µM (inactive) | > 10 µM (inactive) | > 10 µM (inactive) | > 10 µM (inactive) | > 10 µM (inactive) | > 10 µM (inactive) | > 10 µM (inactive) | > 10 µM (inactive) | > 10 µM (inactive) | > 10 µM (inactive) | > 10 µM (inactive) | > 10 µM (inactive) | > 10 µM (inactive) | > 10 µM | > 10 µM (inactive) |
| O=C(Nc1ccccc1)c1cc(S(=O)(=O)N2CCNC2=O)c(S)cc1Cl | > 100 µM (inactive) | > 100 µM (inactive) | > 100 µM (inactive) | > 100 µM (inactive) | 36.6 µM (inactive) | > 100 µM (inactive) | > 100 µM (inactive) | > 100 µM (inactive) | > 100 µM (inactive) | > 100 µM (inactive) | 23.2 µM (inactive) | > 100 µM (inactive) | > 100 µM (inactive) | > 100 µM (inactive) | > 100 µM (inactive) | > 100 µM (inactive) | > 100 µM (inactive) | > 100 µM (inactive) | > 100 µM | > 100 µM (inactive) |
| NC(=O)C(Nc1ccc(Cl)cc1)c1cc2cc(Br)ccc2nc1Cl (stereo not given) | > 50 µM (inactive) | 18.5 µM (inactive) | 19.5 µM (inactive) | > 50 µM (inactive) | > 50 µM (inactive) | 18.9 µM (inactive) | > 50 µM (inactive) | 20.5 µM (inactive) | > 50 µM (inactive) | > 50 µM (inactive) | 31.5 µM (inactive) | > 50 µM (inactive) | > 50 µM (inactive) | 17.7 µM (inactive) | 41.1 µM (inactive) | > 50 µM (inactive) | 19.9 µM (inactive) | > 50 µM (inactive) | > 50 µM | > 50 µM (inactive) |
| CS(=O)(=O)c1ccc(NNc2cc(=O)[nH]c(=O)[nH]2)cc1 | > 100 µM (inactive) | > 100 µM (inactive) | > 100 µM (inactive) | > 100 µM (inactive) | > 10 µM (inactive) | > 100 µM (inactive) | > 100 µM (inactive) | > 100 µM (inactive) | > 100 µM (inactive) | > 100 µM (inactive) | 21.7 µM (inactive) | > 100 µM (inactive) | > 100 µM (inactive) | 47.8 µM (inactive) | > 100 µM (inactive) | > 100 µM (inactive) | 0.0155 µM (active) | > 100 µM (inactive) | > 100 µM | > 100 µM (inactive) |
| COc1ccc(C2c3cc4c(cc3OC(NNc3ccccc3)C2C)OCO4)cc1 (stereo not given) | 4.92 µM (inactive) | 2.36 µM (inactive) | 3.15 µM (inactive) | 40.7 µM (inactive) | 5.89 µM (inactive) | 1.71 µM (inactive) | 16.6 µM (inactive) | 1.7 µM (inactive) | > 100 µM (inactive) | 4.82 µM (inactive) | 2.77 µM (inactive) | 22.1 µM (inactive) | 17.2 µM (inactive) | 19.5 µM (inactive) | 8.51 µM (inactive) | 4.8 µM (inactive) | 8.97 µM (inactive) | 7.06 µM (inactive) | 1.05 µM | 5.52 µM (inactive) |
| CCCCCCCC(CC(=O)NC(CO)C(=O)NC(CO)CC(C)C)OC(=O)CC(CCCCCCC)OC(=O)CC(CCCCCCC)OC1OC(C)C(O)C(OC2OC(C)C(O)C(O)C2O)C1O (stereo not given) | 14.1 µM (inactive) | 11.7 µM (inactive) | 3.06 µM (inactive) | 12.2 µM (inactive) | 18.4 µM (inactive) | 3.05 µM (inactive) | 5.28 µM (inactive) | 5.12 µM (inactive) | 17.6 µM (inactive) | 13.9 µM (inactive) | 13 µM (inactive) | 14.3 µM (inactive) | 18.7 µM (inactive) | 12 µM (inactive) | 13.7 µM (inactive) | 12.7 µM (inactive) | 16.5 µM (inactive) | 8.87 µM (inactive) | 19.7 µM | 12.6 µM (inactive) |
| Cc1c2ccccc2c(C2C3C(=O)N(c4cccc5ccccc45)C(=O)C3ON2Cc2ccc(CC(N)=O)cc2)c2ccccc12 (stereo not given) | 14.4 µM (inactive) | 12 µM (inactive) | 8.24 µM (inactive) | 19.6 µM (inactive) | 29.3 µM (inactive) | 14 µM (inactive) | 18.9 µM (inactive) | 15.7 µM (inactive) | 30.8 µM (inactive) | 18.8 µM (inactive) | 18.9 µM (inactive) | 24.4 µM (inactive) | 35.6 µM (inactive) | 15.6 µM (inactive) | 8.59 µM (inactive) | 17.4 µM (inactive) | 16.7 µM (inactive) | 7.78 µM (inactive) | 18.4 µM | 18.9 µM (inactive) |
| C=CCNC1=C2C[C@@H](C)C[C@@H](OC)[C@H](OC(=O)CN)[C@H](C)/C=C(\C)[C@@H](OC(N)=O)[C@H](OC)/C=C\C=C(/C)C(=O)NC(=CC1=O)C2=O | 0.381 µM (active) | 0.883 µM (active) | 1.21 µM (inactive) | 5.4 µM (inactive) | 4.6 µM (inactive) | 0.134 µM (active) | 0.528 µM (active) | 0.337 µM (active) | 0.162 µM (active) | 1.16 µM (inactive) | 0.706 µM (active) | 1.49 µM (inactive) | 0.74 µM (active) | 3.41 µM (inactive) | 1.95 µM (inactive) | 0.4 µM (active) | 0.355 µM (active) | 0.204 µM (active) | 3.49 µM | 0.783 µM (active) |
| Cc1c(O)c(OC2OC(CO)C(O)C(O)C2O)cc2c1CC[C@@H]1C2(C)C(=O)C[C@]2(C)[C@@H]([C@@](C)(O)C(O)CCC(C)(C)O)[C@H](O)C[C@@]12C (stereo not given in full) | > 100 µM (inactive) | > 100 µM (inactive) | > 100 µM (inactive) | > 100 µM (inactive) | > 100 µM (inactive) | > 100 µM (inactive) | > 100 µM (inactive) | > 100 µM (inactive) | > 100 µM (inactive) | > 100 µM (inactive) | > 100 µM (inactive) | > 100 µM (inactive) | > 100 µM (inactive) | > 100 µM (inactive) | > 100 µM (inactive) | > 100 µM (inactive) | > 100 µM (inactive) | > 100 µM (inactive) | > 100 µM | > 100 µM (inactive) |
| COc1cccc(-c2cc(=O)c3ccc(C)nc3[nH]2)c1 | 0.0436 µM (active) | 0.0388 µM (active) | 0.0741 µM (active) | 0.0592 µM (active) | 0.0458 µM (active) | 0.016 µM (active) | 0.0596 µM (active) | 0.0232 µM (active) | 0.051 µM (active) | 0.0219 µM (active) | 0.0448 µM (active) | 0.0491 µM (active) | 0.0405 µM (active) | 0.0401 µM (active) | 0.0274 µM (active) | 0.0361 µM (active) | > 100 µM (inactive) | 0.0277 µM (active) | 0.0402 µM | 0.0824 µM (active) |
| c1cc(-c2sc(-c3ccncc3)c(-c3ccncc3)c2-c2ccncc2)ccn1 | 14.1 µM (inactive) | 12.5 µM (inactive) | 12 µM (inactive) | 18.4 µM (inactive) | 36.9 µM (inactive) | 14.2 µM (inactive) | 13.6 µM (inactive) | 28.2 µM (inactive) | 20.9 µM (inactive) | 16.9 µM (inactive) | 15.5 µM (inactive) | 14.1 µM (inactive) | 12.5 µM (inactive) | 11.4 µM (inactive) | 16.3 µM (inactive) | 19.8 µM (inactive) | 15.2 µM (inactive) | 12.8 µM (inactive) | 18.5 µM | 23 µM (inactive) |
